We go through 14 compounds from US8664289B2, “Dye and coloring photosensitive composition” (Adeka Corporation, priority 2010, dated 2014).

Holding throughout (format): physicochemical
One data set is described as follows: Solubility in PGMEA. Conditions: concentration when PGMEA was added dropwise to 0.1 g of the compound under stirring and was dissolved completely. The method, then: That the obtained solid was an intended product was confirmed by ^1H-NMR and IR. Furthermore, the solubility of the obtained compound was measured. The solubility was a concentration when PGMEA was added dropwise to 0.1 g of the compound under stirring and was dissolved completely. The results thereof are shown in [Table 1] to [Table 4].
That the obtained solid was an intended product was confirmed by ^1H-NMR and IR. Furthermore, the solubility of the obtained compound was measured. The solubility was a concentration when PGMEA was added to 0.1 g of the compound while stirring and was dissolved completely. The results thereof are shown in [Table 1] to [Table 4]

Data set [1] in a line: Evaluation of absorption wavelength property in CHCl3 solution. Also noted: ε: unit not given here. Conditions: for ε: molar absorption coefficient. The source says: The absorption wavelength properties of Compounds Nos. 1 to 7, 16, 26, 43, 52 to 62, 65, 66, 69, 70 and 94 to 102 and Comparative Compounds Nos. 1 and 2 obtained above were each evaluated in a CHCl3 solution. The results are shown in [Table 5].

The nature of data set [2]: Evaluation of heat resistance by TG-DTA. Conditions: temperature at 10% weight loss. The method, then:
Compounds Nos. 1 to 7, 16, 26, 43, 52 to 62, 65, 66, 69, 70 and 94 to 102 and Comparative Compounds Nos. 1 and 2 obtained above were analyzed by TG-DTA, and the melting points and temperatures at 10% weight loss were measured. The results are shown in [Table 6].

A short description of data set [3]: Heat resistance of exposed coating film of coloring alkali-developable photosensitive composition. Conditions: for Relative intensity After exposure: coating film after exposure (150 mJ/cm^2), before heating; for λmax: coating film of composition containing the compound, on glass; for Relative intensity 230° C., 30 min: exposed coating film after 230° C. The source says: 30.33 g of ACA Z250 (manufactured by Daicel Cytec Company Ltd.) and 11.04 g of ARONIX M-450 (manufactured by Toagosei Co., Ltd.) as the component (B), 1.93 g of IRGACURE 907 (manufactured by BASF) as the component (C), 36.60 g of PGMEA and 20.08 g of cyclohexanone as the component (E), as well as 0.01 g of FZ2122 (manufactured by Dow Corning Toray Co., Ltd.) as other component were mixed and stirred until insoluble components were diminished to give Alkali-developable photosensitive composition No. 1.
1.90 g of dimethylacetamide was added to 0.10 g of Compound No. 1 obtained above as the component (A) and dissolved under stirring.
5.0 g of Alkali-developable photosensitive composition No. 1 obtained in Step 1 and 1.0 g of Dye liquid No. 1 obtained in Step 2 were mixed and stirred to homogeneous to give Coloring alkali-developable photosensitive composition No. 1 of the present invention.
Coloring alkali-developable photosensitive compositions Nos. 2 to 20 were obtained in a similar manner to that in Example 2-1, except that Compound No. 1 as the component (A) in Step 2 of Example 2-1 was changed to Compound No. 2, 3, 5, 6, 16, 53, 56, 57, 59, 60, 65, 66, 94 or 96 to 101 obtained above.
Comparative coloring alkali-developable photosensitive compositions Nos. 1 and 2 were obtained in a similar manner to that in Example 2-1, except that Compound No. 1 as the component (A) in Step 2 of Example 2-1 was changed to Comparative Compound No. 1 or 2.
The coloring alkali-developable photosensitive compositions obtained in Example 2 were each applied to a glass basal plate under a condition of 410 rpm×7 sec and dried (90° C., 90 sec) on a hot plate. The obtained coating film was exposed (150 mJ/cm^2) by using an ultrahigh pressure mercury lamp. The heat resistance of the exposed coating film was investigated under conditions of 180° C.×60 min and 230° C.×30 min. The results are shown in [Table 7].
Using the coloring alkali-developable photosensitive compositions obtained in Examples 2-2 to 2-20 and Comparative Examples 2-1 and 2-2, heat resistance was investigated in a similar manner to that in Evaluation Example 3. The results are shown in [Table 7].

Consider `C=C(C)C(=O)OCCN(C)c1ccc(/C=C(\C#N)C(=O)OCCCCCCOC(=O)/C(C#N)=C/c2ccc(N(C)CCOC(=O)C(=C)C)cc2)cc1` [Compound No. 66], for which the “Solubility (PGMEA)” value in “Solubility in PGMEA” is listed as 1.0 or less wt %. In data set [1], this compound came in with a λmax of 419 nm and a ε of 94100. The 10% weight loss in data set [2] worked out at 354 °C. Also, in data set [3], the “Relative intensity After exposure” value stood at 100; the λmax is on record as 419 nm; the “Relative intensity 230° C., 30 min” value is on record as 99.2.
Take `N#C/C(=C\c1ccc(N2CCOCC2)cc1)C(=O)OCCCCCCCOC(=O)/C(C#N)=C/c1ccc(N2CCOCC2)cc1` [Compound No. 60]: the “Solubility (PGMEA)” value in the data set “Solubility in PGMEA” is reported as 1.0 or less wt %. In data set [1], this compound came in with a λmax of 405 nm and a ε of 71700. The compound also showed a 10% weight loss in data set [2] of 350 °C. In data set [3], the “Relative intensity After exposure” value came out at 100; the λmax turned out to be 408 nm; the “Relative intensity 230° C., 30 min” value was 73.8.
In the case of `CCN(CC)c1ccc(/C=C(\C#N)C(=O)OCCOC(=O)/C(C#N)=C/c2ccc(N(CC)CC)cc2)cc1` [Compound No. 1], the “Solubility (PGMEA)” value in “Solubility in PGMEA” was 0.5 wt %. In data set [1], this compound returned a λmax of 436 nm and a ε of 107000. This compound also had a 10% weight loss in data set [2] of 318 °C. Moreover, in data set [3], the “Relative intensity After exposure” value amounted to 100; the λmax is listed as 418 nm; the “Relative intensity 230° C., 30 min” value amounted to 99.4.
With `CCN(CC)c1ccc(/C=C(\C#N)C(=O)OCC(C)(COC(=O)/C(C#N)=C/c2ccc(N(CC)CC)cc2)COC(=O)/C(C#N)=C/c2ccc(N(CC)CC)cc2)cc1` [Compound No. 56], in the data set “Solubility in PGMEA”, the “Solubility (PGMEA)” value came out at 5.6 wt %. In data set [1], this compound had a λmax of 436 nm and a ε of 160000. Moreover, the 10% weight loss in data set [2] turned out to be 334 °C. Moreover, in data set [3], the “Relative intensity After exposure” value is 100; the λmax is given as 430 nm; the “Relative intensity 230° C., 30 min” value came to 99.9.
Consider `N#C/C(=C\c1ccc(N(c2ccccc2)c2ccccc2)cc1)C(=O)OCCCCCCCOC(=O)/C(C#N)=C/c1ccc(N(c2ccccc2)c2ccccc2)cc1` [Compound No. 65], for which the “Solubility (PGMEA)” value in “Solubility in PGMEA” was 5.3 wt %. Moreover, in data set [1], the λmax was 435 nm and the ε is 65300. Moreover, the 10% weight loss in data set [2] came to 354 °C. Besides, in data set [3], the “Relative intensity After exposure” value amounted to 100; the λmax is on record as 430 nm; the “Relative intensity 230° C., 30 min” value turned out to be 99.3.
For `CCN(CC)c1ccc(/C=C(\C#N)C(=O)OCC(CC)(COC(=O)/C(C#N)=C/c2ccc(N(CC)CC)cc2)COC(=O)/C(C#N)=C/c2ccc(N(CC)CC)cc2)cc1` [Compound No. 57], in “Solubility in PGMEA”, the “Solubility (PGMEA)” value is listed as 1.0 or less wt %. Besides, in data set [1], the λmax was found to be 437 nm and the ε worked out at 152000. In data set [2], this compound yielded a 10% weight loss of 339 °C. In data set [3], the “Relative intensity After exposure” value came out at 100; the λmax worked out at 430 nm; the “Relative intensity 230° C., 30 min” value amounted to 99.9.
On to `CCN(CC)c1ccc(/C=C(\C#N)C(=O)OCC(C)(COC(=O)/C(C#N)=C/c2ccc(N(C)CCO)cc2)COC(=O)/C(C#N)=C/c2ccc(N(C)CCO)cc2)cc1` [Compound No. 99], for which, in the data set “Solubility in PGMEA”, the “Solubility (PGMEA)” value was 1.0 or less wt %. In data set [1], the λmax is recorded as 431 nm and the ε is recorded as 130000. In addition, in data set [2], the 10% weight loss stood at 320 °C. Also, in data set [3], the “Relative intensity After exposure” value was determined as 100; the λmax was 433 nm; the “Relative intensity 230° C., 30 min” value is 99.6.
As for `CCN(CC)c1ccc(/C=C(\C#N)C(=O)OCC(C)OC(=O)/C(C#N)=C/c2ccc(N(CC)CC)cc2)cc1` (centres unmarked) [Compound No. 2], in the data set “Solubility in PGMEA”, the “Solubility (PGMEA)” value was 4.0 wt %. In addition, in data set [1], the λmax was determined as 434 nm and the ε amounted to 100000. The compound also returned a 10% weight loss in data set [2] of 312 °C. Further, in data set [3], the “Relative intensity After exposure” value came to 100; the λmax is reported as 430 nm; the “Relative intensity 230° C., 30 min” value was determined as 99.3.
For `CCN(CC)c1ccc(/C=C(\C#N)C(=O)Oc2ccc(C(C)(C)c3ccc(OC(=O)/C(C#N)=C/c4ccc(N(CC)CC)cc4)cc3)cc2)cc1` [Compound No. 6], the “Solubility (PGMEA)” value in “Solubility in PGMEA” was 0.9 wt %. In addition, in data set [1], the λmax worked out at 440 nm and the ε is 132000. Besides, in data set [2], the 10% weight loss amounted to 322 °C. Further, in data set [3], the “Relative intensity After exposure” value is 100; the λmax turned out to be 442 nm; the “Relative intensity 230° C., 30 min” value is 99.9.
On to `CCN(CC)c1ccc(/C=C(\C#N)C(=O)OCC(C)(COC(=O)/C(C#N)=C/c2ccc(N(CC)CC)cc2)COC(=O)/C(C#N)=C/c2ccc(N(c3ccccc3)c3ccccc3)cc2)cc1` (centres unmarked) [Compound No. 96], for which the “Solubility (PGMEA)” value in “Solubility in PGMEA” came out at 10.0 wt %. In data set [1], this compound displayed a λmax of 437 nm and a ε of 138000. The same compound showed a 10% weight loss in data set [2] of 347 °C. Moreover, in data set [3], the “Relative intensity After exposure” value is reported as 100; the λmax is listed as 433 nm; the “Relative intensity 230° C., 30 min” value is given as 99.5.
As to `CCN(CC)c1ccc(/C=C(\C#N)C(=O)OCCCCCCCOC(=O)/C(C#N)=C/c2ccc(N(CC)CC)cc2)cc1` [Compound No. 5], in “Solubility in PGMEA”, the “Solubility (PGMEA)” value was found to be 2.0 wt %. Also, in data set [1], the λmax was found to be 430 nm and the ε is given as 110000. In data set [2], this compound displayed a 10% weight loss of 348 °C. Moreover, in data set [3], the “Relative intensity After exposure” value stood at 100; the λmax is listed as 431 nm; the “Relative intensity 230° C., 30 min” value is on record as 99.5.
Regarding `CCN(CC)c1ccc(/C=C(\C#N)C(=O)OCC(C)(COC(=O)/C(C#N)=C/c2ccc(N3CCOCC3)cc2)COC(=O)/C(C#N)=C/c2ccc(N3CCOCC3)cc2)cc1` [Compound No. 97], the “Solubility (PGMEA)” value in the data set “Solubility in PGMEA” is given as 10.0 wt %. In data set [1], the λmax was determined as 417 nm and the ε was 103000. In data set [2], this compound registered a 10% weight loss of 334 °C. Further, in data set [3], the “Relative intensity After exposure” value is reported as 100; the λmax worked out at 417 nm; the “Relative intensity 230° C., 30 min” value worked out at 98.2.
With `CCN(CC)c1ccc(/C=C(\C#N)C(=O)OCC(C)(COC(=O)/C(C#N)=C/c2ccc(N(C)CCO)cc2)COC(=O)/C(C#N)=C/c2ccc(N(CC)CC)cc2)cc1` (centres unmarked) [Compound No. 100], the “Solubility (PGMEA)” value in the data set “Solubility in PGMEA” came to 6.0 wt %. In data set [1], this compound gave a λmax of 434 nm and a ε of 147000. The compound further yielded a 10% weight loss in data set [2] of 330 °C. In addition, in data set [3], the “Relative intensity After exposure” value is reported as 100; the λmax is given as 436 nm; the “Relative intensity 230° C., 30 min” value stood at 99.7.
As to `CN(CCO)c1ccc(/C=C(\C#N)C(=O)OCCCCCCOC(=O)/C(C#N)=C/c2ccc(N(C)CCO)cc2)cc1` [Compound No. 59], the “Solubility (PGMEA)” value in the data set “Solubility in PGMEA” is given as 1.0 or less wt %. In data set [1], this compound had a λmax of 420 nm and a ε of 89900. Further, in data set [2], the 10% weight loss was found to be 295 °C. For the same compound, in data set [3], the “Relative intensity After exposure” value was determined as 100; the λmax is 431 nm; the “Relative intensity 230° C., 30 min” value was determined as 99.7.
